Measured values from PMC4919791, “Effect of curcumin analogs onα-synuclein aggregation and cytotoxicity” (Scientific Reports, 2016).

What was measured:
[1] = Stability of curcumin analogs by time-dependent intrinsic fluorescence; type: physicochemical; settings: 20 mM MES buffer pH 6.0, 0.01% NaN3, 37 °C
Method: 1μl of this DMSO-stock solution was transferred to 2 ml microfuge tube and 1 ml of 20 mM MES buffer (pH 6.0, 0.01% NaN3) was added to it and mixed immediately by vortexing. These solutions were incubated at 37 °C and their respective fluorescence was taken at certain time intervals. The fluorescence was monitored by placing the 200 μl of the incubated solution in 0.1 cm path-length quartz cuvette (Hellma, Forest Hills, NY) and the spectra were acquired by using FluoroMax-4 spectrofluorometer (HORIBA JobinYvon) instrument with excitation and emission slit widths of 5 nm and 10 nm respectively. The fluorescence intensity maxima for each sample were plotted against time of incubation and fitted in exponential decay 1 in the Origin 8.0 software according to manufacture’s protocol (Fig. 2A).

[2] = target: T1, preformed α-Syn amyloid fibrils (Homo sapiens, UniProt P37840); assay: TEM of preformed α-Syn fibrils with analogs; type: biochemical; settings: after 48 h incubation with analog
T1 construct: made in house; host or cells: Escherichia coli BL21
Method: (§1) The samples were then washed thrice with autoclaved MQ. The samples were then stained with 10 μl of uranyl formate 1% (w/v) and incubated in dark for 10 min. The EM image of each sample was acquired at 120 kV with magnifications in the range of 26,000X and 43,000X using a transmission electron microscope (TECNAI12 D312 FEI, Netherlands).

α-Syn fibrils = target: T2, α-Syn fibrils (Homo sapiens, UniProt P37840); assay: Binding affinity to α-Syn fibrils by curcumin analog fluorescence; settings: for binding with preformed α-Syn fibrils: compound fluorescence
T2 construct: made in house; host or cells: Escherichia coli BL21
Method: To estimate the comparative binding affinity of curcumin analogs to the α-Syn fibrils and oligomers, curcumin fluorescence assay was performed for each analog. For binding study with fibrils, 10 μM of α-Syn fibrils were incubated in presence of varying concentration of curcumin and its analogs (0.25 μM to 30 μM) for 30 min at RT in dark and then fluorescence spectra were recorded. The normalized fluorescence intensity of different concentrations of curcumin/analogs at their corresponding λmax was plotted to obtain their respective saturation plots (Figs 6A and S7). From the saturation plot, dissociation constant (Kd) was calculated (see method section).
The binding of curcumin/analogs to α-Syn fibrils were determined based on change in fluorescence intensity. For this study, 10 μM α-Syn fibrils were incubated in presence and absence of varying concentration of curcumin/analogs (0.25 μM to 30 μM) for 30 min at RT in dark. Immediately after incubation, fluorescence study was performed (for the excitation and emission ranges for each compounds, see Fig. S1). Experiments were performed using FluoroMax-4 spectrofluorometer (HORIBA JobinYvon) with excitation and emission slit widths of 5 nm. The maximum fluorescence intensity for curcumin/analogs was normalized with respect to that of the lowest concentration of each analog. The normalized fluorescence intensity was plotted against increasing concentration of curcumin/analogs and the dissociation constant was determined using the equation
where, “ΔF” is the change in the fluorescence intensity of curcumin/analogs, “ΔFmax” is the change in the fluorescence intensity at saturation point and “L”is the concentration of curcumin/analogs. The data were analyzed in Graphpad Prism software according to established method as used previously. Similarly, the dissociation constant of curcumin and its analogs with preformed α-Syn oligomers and monomers (obtained from SEC) were also determined.

α-Syn [3] = target: T3, α-Syn (Homo sapiens, UniProt P37840); assay: α-Syn aggregation kinetics by compound fluorescence; type: biochemical; settings: in presence of analog
T3 construct: made in house; host or cells: Escherichia coli BL21
Method: ThT fluorescence was used to monitor the aggregation kinetics of α-Syn only as a control.
(§2) Subsequently, we examined the effect of these analogs on α-Syn oligomerization by time dependent static light scattering experiment. […] After aggregation, TEM study was done to determine the effects of these analogs on the morphology of the resultant aggregates.
The α-Syn amyloid aggregation was started with LMW α-Syn of concentration ~300 μM in 1.5 ml microfuge tube in 20 mM MES buffer, pH 6.0, with 0.01% NaN3. […] The microfuge tubes with protein solutions were placed into Echo-Therm model RT11 vertical rotor (Torrey Pines Scientific, USA) with a speed of 50 rpm, at 37 °C inside an incubator.
The experiments were performed in FluoroMax-4 spectrofluorometer (HORIBA JobinYvon) with excitation and emission slit widths of 5 nm. Fluorescence was done in 20 mM MES buffer (pH 6.0, 0.01% NaN3).

α-Syn [4] = target: T3, α-Syn; assay: TEM of α-Syn aggregates formed in presence of analogs; type: biochemical
Method: as §2, §1

preformed α-Syn fibrils [5] = target: T4, preformed α-Syn fibrils (Homo sapiens, UniProt P37840); assay: LDH cytotoxicity assay of preformed α-Syn fibrils incubated with curcumin analogs; type: cell-based; settings: fibrils incubated with analog 48 h; SH-SY5Y cells
T4 construct: made in house; host or cells: Escherichia coli BL21
Method: The concentration of the fibrils was determined by subtraction of supernatant concentration from the original concentration of α-Syn kept for fibrillation.
The percent LDH release was plotted as difference in the absorbance value of 490 nm and 690 nm, considering 100% release for the TritonX-100 treated cells.

preformed α-Syn fibrils [6] = target: T4, preformed α-Syn fibrils; assay: Nile red binding assay on preformed α-Syn fibrils; type: biochemical; settings: fibrils incubated with analog 48 h
Method: Stock solution of NR was prepared in DMSO (1 mM). […] Similar experimental protocol was used for NR binding to oligomers. FluoroMax-4 spectrofluorometer (HORIBA JobinYvon) was used with excitation and emission slit widths of 5 nm. The maximum NR fluorescence obtained at ~630 nm was used for plotting bar diagrams.

α-Syn oligomers = target: T5, α-Syn oligomers (Homo sapiens, UniProt P37840); assay: Binding affinity to α-Syn oligomers by curcumin analog fluorescence; settings: for affinity to oligomers compared to fibrils: comparison of Kd for fibrils and oligomers; for Kd: compound fluorescence, read-out: dissociation constant (Kd) for α-Syn oligomers
T5 construct: made in house; host or cells: Escherichia coli BL21
Method: Immediately after incubation, fluorescence study was performed (for the excitation and emission ranges for each compounds, see Fig. S1). Experiments were performed using FluoroMax-4 spectrofluorometer (HORIBA JobinYvon) with excitation and emission slit widths of 5 nm.
The data were analyzed in Graphpad Prism software according to established method as used previously.

SMILES	relative stability compared with curcumin (slope of normalized fluorescence versus time) [1]	fibril morphology/thickness of preformed α-Syn fibrils (TEM, words) [2]	binding with preformed α-Syn fibrils (α-Syn fibrils)	effect on rate/kinetics of α-Syn aggregation (α-Syn [3])	morphology of α-Syn aggregates formed in presence of analog (TEM) (α-Syn [4])	effect on cell death by preformed α-Syn fibrils, LDH (preformed α-Syn fibrils [5])	Nile red fluorescence of preformed α-Syn fibrils (exposed hydrophobic surface) (preformed α-Syn fibrils [6])	affinity to oligomers compared to fibrils (α-Syn oligomers)	Kd (α-Syn fibrils; 10 μM fibrils, 0.25–30 μM analog, 30 min RT, read-out: dissociation constant (Kd) for α-Syn fibrils)	average fibril thickness of fibrils formed in presence of analog (α-Syn [4])	Kd (α-Syn oligomers)
O=C(/C=C/c1cccnc1)CC(=O)/C=C/c1cccnc1 [C9]	relatively more stable than curcumin	thinner fibrils	did not show any significant binding	less significant effect	fibrils with shorter length						
COc1ccc(OC)c(/C=C/C(=O)CC(=O)/C=C/c2cc(OC)ccc2OC)c1 [C5]	relatively more stable than curcumin			increases the rate of α-Syn aggregation	fibrils with shorter length	decrease in cell death	less NR fluorescence for fibrils as compared to curcumin				
COc1ccc(/C=C/C(=O)CC(=O)/C=C/c2ccc(OC)cc2)cc1 [C10]	relatively more stable than curcumin				fibrils with shorter length	decrease in cell death		higher binding affinity to oligomers as compared to fibrils			
O=C(/C=C/c1ccccc1)CC(=O)/C=C/c1ccccc1 [C7]	relatively more stable than curcumin	thinner fibrils	very weak binding		fibrils with shorter length	decrease in cell death			13.2 ± 2.29 µM	more in comparison to fibrils formed in presence of other analogs	
O=C(/C=C/c1cccs1)CC(=O)/C=C/c1cccs1 [C8]	relatively more stable than curcumin	thinner fibrils		less significant effect		decrease in cell death		higher binding affinity to oligomers as compared to fibrils			1.46 ± 0.2 µM
COc1ccc(/C=C/C(=O)CC(=O)/C=C/c2ccc(OC)cc2OC)c(OC)c1 [C4]											16.5 ± 2.63 µM
